For test [1], the target named is T1, TLR8 (Homo sapiens, UniProt Q9NR97).
T1 construct: host or cells: HEK-Blue cells (human HEK) co-expressing TLR8 and an NF-kB/AP1-inducible SEAP reporter
T1 sequence (Q9NR97 27-1041): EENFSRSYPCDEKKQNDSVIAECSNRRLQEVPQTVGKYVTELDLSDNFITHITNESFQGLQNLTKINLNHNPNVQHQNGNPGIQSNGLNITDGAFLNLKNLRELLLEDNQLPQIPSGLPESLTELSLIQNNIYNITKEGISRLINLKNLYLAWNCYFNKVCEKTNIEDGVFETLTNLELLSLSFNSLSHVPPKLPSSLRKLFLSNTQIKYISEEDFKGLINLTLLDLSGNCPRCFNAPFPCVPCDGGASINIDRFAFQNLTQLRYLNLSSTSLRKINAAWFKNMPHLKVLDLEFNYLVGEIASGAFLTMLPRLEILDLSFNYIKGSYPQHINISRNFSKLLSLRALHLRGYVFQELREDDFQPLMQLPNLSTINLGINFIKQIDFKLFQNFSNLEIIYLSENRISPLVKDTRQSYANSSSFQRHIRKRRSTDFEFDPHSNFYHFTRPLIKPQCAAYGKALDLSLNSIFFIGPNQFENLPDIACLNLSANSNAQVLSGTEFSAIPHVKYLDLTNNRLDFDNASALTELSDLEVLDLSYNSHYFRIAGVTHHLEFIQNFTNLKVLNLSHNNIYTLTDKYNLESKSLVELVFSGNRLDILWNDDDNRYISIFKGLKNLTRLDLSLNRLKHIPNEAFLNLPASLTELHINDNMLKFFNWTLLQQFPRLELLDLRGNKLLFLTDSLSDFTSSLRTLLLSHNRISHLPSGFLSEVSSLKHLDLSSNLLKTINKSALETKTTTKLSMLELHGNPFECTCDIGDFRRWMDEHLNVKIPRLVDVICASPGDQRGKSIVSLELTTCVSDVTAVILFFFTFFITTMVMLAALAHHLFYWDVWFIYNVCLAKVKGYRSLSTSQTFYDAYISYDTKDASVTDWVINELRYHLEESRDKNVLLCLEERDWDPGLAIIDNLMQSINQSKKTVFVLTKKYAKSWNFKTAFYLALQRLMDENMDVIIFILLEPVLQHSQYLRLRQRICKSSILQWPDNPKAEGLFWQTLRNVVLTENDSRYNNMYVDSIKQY
Kind of test: In vitro human TLR8 binding reporter assay (HEK-Blue, NF-kB/AP1-inducible SEAP). The class given is cell-based. In a few lines:
(§1)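 Reporter cells are plated at 15,000 per well and rested 24 h. Next day, test compounds or DMSO are dispensed, followed by 18 h incubation at 37 °C, 5% CO2.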
On the technique in general: Reporter assays use an easily measured gene product as a stand-in for the process of interest.

Test [2] deals with T2, TLR7 (Homo sapiens, UniProt Q9NYK1).
T2 construct: host or cells: HEK-Blue cells (human HEK) co-expressing TLR7 and an NF-kB/AP1-inducible SEAP reporter
T2 sequence (Q9NYK1 27-1049): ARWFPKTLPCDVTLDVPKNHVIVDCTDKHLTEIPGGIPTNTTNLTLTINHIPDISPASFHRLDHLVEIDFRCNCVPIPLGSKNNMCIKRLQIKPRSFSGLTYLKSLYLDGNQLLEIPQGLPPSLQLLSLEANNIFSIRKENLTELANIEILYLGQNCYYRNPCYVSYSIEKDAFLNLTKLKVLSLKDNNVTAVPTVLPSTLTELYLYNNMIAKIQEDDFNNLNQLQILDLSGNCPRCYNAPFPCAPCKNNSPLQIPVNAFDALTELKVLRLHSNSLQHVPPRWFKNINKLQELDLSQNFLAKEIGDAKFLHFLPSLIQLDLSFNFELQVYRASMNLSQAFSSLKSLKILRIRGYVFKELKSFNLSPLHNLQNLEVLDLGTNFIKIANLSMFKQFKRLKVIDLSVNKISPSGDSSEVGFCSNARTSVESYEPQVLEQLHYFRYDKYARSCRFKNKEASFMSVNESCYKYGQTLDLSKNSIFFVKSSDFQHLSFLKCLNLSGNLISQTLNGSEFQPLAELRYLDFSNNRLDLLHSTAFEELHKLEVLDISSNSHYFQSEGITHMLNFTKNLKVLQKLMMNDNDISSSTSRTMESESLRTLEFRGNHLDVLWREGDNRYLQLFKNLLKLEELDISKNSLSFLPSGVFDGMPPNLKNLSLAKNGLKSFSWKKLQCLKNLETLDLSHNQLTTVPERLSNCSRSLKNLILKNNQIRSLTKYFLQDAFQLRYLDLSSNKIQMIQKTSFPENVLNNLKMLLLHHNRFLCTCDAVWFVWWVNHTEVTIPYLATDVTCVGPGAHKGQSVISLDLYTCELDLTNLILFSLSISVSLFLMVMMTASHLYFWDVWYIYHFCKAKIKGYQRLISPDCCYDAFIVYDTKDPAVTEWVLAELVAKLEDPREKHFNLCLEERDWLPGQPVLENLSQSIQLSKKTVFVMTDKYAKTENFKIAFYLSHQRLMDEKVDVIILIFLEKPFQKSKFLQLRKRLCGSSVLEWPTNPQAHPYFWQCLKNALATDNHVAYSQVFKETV
As to the kind of experiment: In vitro human TLR7 binding reporter assay (HEK-Blue, NF-kB/AP1-inducible SEAP). The format is cell-based. The note with it: activity range symbols. Put shortly: as §1

Broadly, the EC50 is the concentration at which the effect is half-maximal. The low end stands for a more potent agent, the high end for a less potent agent. On to `CCN(Cc1nc2c(N)nc3cc(-c4cc[nH]n4)ccc3c2[nH]1)C(=O)Cc1cccc(C)c1` [Compound 437, N-{[4-amino-7-(1H-pyrazol-3-yl)-1H-imidazo[4,5-c]quinolin-2-yl]methyl}-N-ethyl-2-(3-methylphenyl)acetamide], for which the EC50 in test [1] (activity range symbols) and in test [2] was over 100 µM throughout.

Turning to `CCN(Cc1nc2c(N)nc3cc(-c4cc[nH]n4)ccc3c2[nH]1)C(=O)c1cccnc1` [Compound 438, N-{[4-amino-7-(1H-pyrazol-3-yl)-1H-imidazo[4,5-c]quinolin-2-yl]methyl}-N-ethylpyridine-3-carboxamide], the EC50 in test [1] (activity range symbols) and in test [2] was over 100 µM in each case.

Take `CCN(Cc1nc2c(N)nc3cc(-c4cc[nH]n4)ccc3c2[nH]1)C(=O)c1ccccn1` [Compound 439, N-{[4-amino-7-(1H-pyrazol-3-yl)-1H-imidazo[4,5-c]quinolin-2-yl]methyl}-N-ethylpyridine-2-carboxamide]: the concentration giving a half-maximal response (EC50) in test [1] (activity range symbols) and in test [2] was over 100 µM throughout.

Regarding `CCN(Cc1nc2c(N)nc3cc(-c4cc[nH]n4)ccc3c2[nH]1)C(=O)CC(C)(C)O` [Compound 440, N-{[4-amino-7-(1H-pyrazol-3-yl)-1H-imidazo[4,5-c]quinolin-2-yl]methyl}-N-ethyl-3-hydroxy-3-methylbutanamide], the 50% effective concentration (EC50) in test [1] (activity range symbols) and in test [2] was over 100 µM throughout.

In the case of `CCN(Cc1nc2c(N)nc3cc(-c4cc[nH]n4)ccc3c2[nH]1)C(=O)c1ccc(OC)cc1` [Compound 441, N-{[4-amino-7-(1H-pyrazol-3-yl)-1H-imidazo[4,5-c]quinolin-2-yl]methyl}-N-ethyl-4-methoxybenzamide], the figures for the half-maximal effective concentration (EC50) in test [1] (numeric bounds) and in test [2] were over 62 µM and over 100 µM, respectively.

Turning to `CCN(Cc1nc2c(N)nc3cc(-c4cc[nH]n4)ccc3c2[nH]1)C(=O)c1cnccn1` [Compound 442, N-{[4-amino-7-(1H-pyrazol-3-yl)-1H-imidazo[4,5-c]quinolin-2-yl]methyl}-N-ethylpyrazine-2-carboxamide], the 50% effective concentration (EC50) in test [1] (activity range symbols) and in test [2] was over 100 µM in each case.

Consider `CCN(Cc1nc2c(N)nc3cc(-c4cc[nH]n4)ccc3c2[nH]1)C(=O)Cc1ccccc1` [Compound 443, N-{[4-amino-7-(1H-pyrazol-3-yl)-1H-imidazo[4,5-c]quinolin-2-yl]methyl}-N-ethyl-2-phenylacetamide], for which the figures for the EC50 in test [1] (numeric bounds) and in test [2] were over 62 µM and over 100 µM, respectively.

For `CCN(Cc1nc2c(N)nc3cc(-c4cc[nH]n4)ccc3c2[nH]1)C(=O)CCCc1ccccc1` [Compound 444, N-{[4-amino-7-(1H-pyrazol-3-yl)-1H-imidazo[4,5-c]quinolin-2-yl]methyl}-N-ethyl-4-phenylbutanamide], the EC50 is 1 to 20 µM in test [1] (activity range symbols) and over 100 µM in test [2].

Take `CCN(Cc1nc2c(N)nc3cc(-c4cc[nH]n4)ccc3c2[nH]1)C(=O)CCC(C)C` [Compound 445, N-{[4-amino-7-(1H-pyrazol-3-yl)-1H-imidazo[4,5-c]quinolin-2-yl]methyl}-N-ethyl-4-methylpentanamide]: the EC50 in test [1] (numeric bounds) was over 62 µM; in test [2], over 100 µM.

Regarding `CCN(Cc1nc2c(N)nc3cc(-c4cc[nH]n4)ccc3c2[nH]1)C(=O)c1cccn1C` [Compound 446, N-{[4-amino-7-(1H-pyrazol-3-yl)-1H-imidazo[4,5-c]quinolin-2-yl]methyl}-N-ethyl-1-methyl-1H-pyrrole-2-carboxamide], the concentration giving a half-maximal response (EC50) in test [1] (activity range symbols) and in test [2] was over 100 µM throughout.

For the compound `CCN(Cc1nc2c(N)nc3cc(-c4cc[nH]n4)ccc3c2[nH]1)C(=O)CCc1ccccc1` [Compound 447, N-{[4-amino-7-(1H-pyrazol-3-yl)-1H-imidazo[4,5-c]quinolin-2-yl]methyl}-N-ethyl-3-phenylpropanamide], the concentration giving a half-maximal response (EC50) in test [1] (activity range symbols) is 1 to 20 µM; in test [2] it was over 100 µM.

As for `CCN(Cc1nc2c(N)nc3cc(-c4cc[nH]n4)ccc3c2[nH]1)C(=O)c1ccccc1Cl` [Compound 449, N-{[4-amino-7-(1H-pyrazol-3-yl)-1H-imidazo[4,5-c]quinolin-2-yl]methyl}-2-chloro-N-ethylbenzamide], the results for the EC50 in test [1] (activity range symbols) and in test [2] were 20 to 100 µM and over 100 µM, respectively.

The values above are taken from patent US12351580B2, “NLRP3 modulators” (Innate Tumor Immunity, Inc., priority 2017, dated 2025).
